Test system: 556581-035-R-J1-PDC complex spheroid viability
Experiment: Anticancer human tumor 556581-035-R-J1-PDC patient-derived ovarian carcinoma cell line growth inhibition
Conditions: for IC50: curve of first compound; for viability, T/C: stronger effect = lower value
Summary of the method: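 Multicellular complex spheroids of tumor cells with human endothelial cells (HUVEC) and mesenchymal stem cells; the LSD1 inhibitor iadademstat was combined with standard-of-care or investigational agents. Top concentration at or near clinical Cmax, half-log dilutions; final DMSO ≤0.25%.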

[1] = second compound 0.1 µM, first compound 0.000316 µM
[2] = second compound 0.1 µM, first compound 0.001 µM
[3] = second compound 0.1 µM, first compound 0.00316 µM
[4] = second compound 0.1 µM, first compound 0.01 µM
[5] = second compound 0.1 µM, first compound 0.0316 µM
[6] = second compound 0.1 µM, first compound 0.1 µM
[7] = second compound 0.316 µM, first compound 0.000316 µM
[8] = second compound 0.316 µM, first compound 0.001 µM
[9] = second compound 0.316 µM, first compound 0.00316 µM
[10] = second compound 0.316 µM, first compound 0.01 µM
[11] = second compound 0.316 µM, first compound 0.0316 µM
[12] = second compound 0.316 µM, first compound 0.1 µM
[13] = second compound 1 µM, first compound 0.000316 µM
[14] = second compound 1 µM, first compound 0.001 µM
[15] = second compound 1 µM, first compound 0.00316 µM
[16] = second compound 1 µM, first compound 0.01 µM
[17] = second compound 1 µM, first compound 0.0316 µM
[18] = second compound 1 µM, first compound 0.1 µM
[19] = second compound 3.16 µM, first compound 0.000316 µM
[20] = second compound 3.16 µM, first compound 0.001 µM
[21] = second compound 3.16 µM, first compound 0.00316 µM
[22] = second compound 3.16 µM, first compound 0.01 µM
[23] = second compound 3.16 µM, first compound 0.0316 µM
[24] = second compound 3.16 µM, first compound 0.1 µM
[25] = second compound 10 µM, first compound 0.000316 µM
[26] = second compound 10 µM, first compound 0.001 µM
[27] = second compound 10 µM, first compound 0.00316 µM
[28] = second compound 10 µM, first compound 0.01 µM
[29] = second compound 10 µM, first compound 0.0316 µM
[30] = second compound 10 µM, first compound 0.1 µM
[31] = second compound 0.1 µM, first compound 0.00949 µM
[32] = second compound 0.1 µM, first compound 0.03 µM
[33] = second compound 0.1 µM, first compound 0.0949 µM
[34] = second compound 0.1 µM, first compound 0.3 µM
[35] = second compound 0.1 µM, first compound 0.949 µM
[36] = second compound 0.1 µM, first compound 3 µM
[37] = second compound 0.316 µM, first compound 0.00949 µM
[38] = second compound 0.316 µM, first compound 0.03 µM
[39] = second compound 0.316 µM, first compound 0.0949 µM
[40] = second compound 0.316 µM, first compound 0.3 µM
[41] = second compound 0.316 µM, first compound 0.949 µM
[42] = second compound 0.316 µM, first compound 3 µM
[43] = second compound 1 µM, first compound 0.00949 µM
[44] = second compound 1 µM, first compound 0.03 µM
[45] = second compound 1 µM, first compound 0.0949 µM
[46] = second compound 1 µM, first compound 0.3 µM
[47] = second compound 1 µM, first compound 0.949 µM
[48] = second compound 1 µM, first compound 3 µM
[49] = second compound 3.16 µM, first compound 0.00949 µM
[50] = second compound 3.16 µM, first compound 0.03 µM
[51] = second compound 3.16 µM, first compound 0.0949 µM
[52] = second compound 3.16 µM, first compound 0.3 µM
[53] = second compound 3.16 µM, first compound 0.949 µM
[54] = second compound 3.16 µM, first compound 3 µM
[55] = second compound 10 µM, first compound 0.00949 µM
[56] = second compound 10 µM, first compound 0.03 µM
[57] = second compound 10 µM, first compound 0.0949 µM
[58] = second compound 10 µM, first compound 0.3 µM
[59] = second compound 10 µM, first compound 0.949 µM
[60] = second compound 10 µM, first compound 3 µM
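Note: spheroids exposed to agents for seven days.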
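Throughout, for viability, T/C: 100% = DMSO vehicle control wells.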

SMILES: CC(C)CC(NC(=O)C(Cc1ccccc1)NC(=O)c1cnccn1)B(O)O (stereo not given) + NC1CC1c1ccc(-c2cccc(O)c2)cc1
- IC50 (second compound 0.1 µM): < 0.316 nM
- IC50 (second compound 0.316 µM): < 0.316 nM
- IC50 (second compound 1 µM): < 0.316 nM
- IC50 (second compound 3.16 µM): < 0.316 nM
- IC50 (second compound 10 µM): < 0.316 nM
- viability, T/C [1]: 1.61%
- viability, T/C [2]: 0.66%
- viability, T/C [3]: 0.12%
- viability, T/C [4]: 0.19%
- viability, T/C [5]: 0.14%
- viability, T/C [6]: 0.26%
- viability, T/C [7]: 3.63%
- viability, T/C [8]: 0.1%
- viability, T/C [9]: 0.35%
- viability, T/C [10]: 0.1%
- viability, T/C [11]: 0.09%
- viability, T/C [12]: 0.17%
- viability, T/C [13]: 1.67%
- viability, T/C [14]: 0.11%
- viability, T/C [15]: 0.08%
- viability, T/C [16]: 0.1%
- viability, T/C [17]: 0.1%
- viability, T/C [18]: 0.2%
- viability, T/C [19]: 1.12%
- viability, T/C [20]: 0.11%
- viability, T/C [21]: 0.11%
- viability, T/C [22]: 0.08%
- viability, T/C [23]: 0.09%
- viability, T/C [24]: 0.31%
- viability, T/C [25]: 1.94%
- viability, T/C [26]: 0.27%
- viability, T/C [27]: 0.22%
- viability, T/C [28]: 5.89%
- viability, T/C [29]: 0.35%
- viability, T/C [30]: 0.86%

SMILES: CC(C)CC(NC(=O)CNC(=O)c1cc(Cl)ccc1Cl)B1OC(=O)CC(CC(=O)O)(C(=O)O)O1 (stereo not given) + NC1CC1c1ccc(-c2cccc(O)c2)cc1
- IC50 (second compound 0.1 µM): 2.44 nM
- IC50 (second compound 0.316 µM): 2.84 nM
- IC50 (second compound 1 µM): 2.78 nM
- IC50 (second compound 3.16 µM): 2.67 nM
- IC50 (second compound 10 µM): 2.73 nM
- viability, T/C [1]: 85.1%
- viability, T/C [2]: 95.6%
- viability, T/C [3]: 38.2%
- viability, T/C [4]: 2.07%
- viability, T/C [5]: 0.71%
- viability, T/C [6]: 0.3%
- viability, T/C [7]: 85.4%
- viability, T/C [8]: 96%
- viability, T/C [9]: 45.8%
- viability, T/C [10]: 1.79%
- viability, T/C [11]: 1.03%
- viability, T/C [12]: 0.98%
- viability, T/C [13]: 91%
- viability, T/C [14]: 95%
- viability, T/C [15]: 44.5%
- viability, T/C [16]: 0.78%
- viability, T/C [17]: 0.36%
- viability, T/C [18]: 0.22%
- viability, T/C [19]: 82.8%
- viability, T/C [20]: 85%
- viability, T/C [21]: 44.1%
- viability, T/C [22]: 0.89%
- viability, T/C [23]: 0.65%
- viability, T/C [24]: 0.31%
- viability, T/C [25]: 85.4%
- viability, T/C [26]: 74.8%
- viability, T/C [27]: 47.1%
- viability, T/C [28]: 3.21%
- viability, T/C [29]: 0.15%
- viability, T/C [30]: 1.14%

SMILES: Nc1ccccc1NC(=O)c1ccc(CNC(=O)OCc2cccnc2)cc1 + NC1CC1c1ccc(-c2cccc(O)c2)cc1
- IC50 (second compound 0.1 µM): 87.6 nM
- IC50 (second compound 0.316 µM): 95.3 nM
- IC50 (second compound 1 µM): 85.9 nM
- IC50 (second compound 3.16 µM): 97.4 nM
- IC50 (second compound 10 µM): 94 nM
- viability, T/C [31]: 91.9%
- viability, T/C [32]: 77.1%
- viability, T/C [33]: 47.3%
- viability, T/C [34]: 21.1%
- viability, T/C [35]: 6.12%
- viability, T/C [36]: 0.47%
- viability, T/C [37]: 92.1%
- viability, T/C [38]: 70.1%
- viability, T/C [39]: 54.5%
- viability, T/C [40]: 23.7%
- viability, T/C [41]: 8.22%
- viability, T/C [42]: 0.62%
- viability, T/C [43]: 92.8%
- viability, T/C [44]: 64.3%
- viability, T/C [45]: 55.9%
- viability, T/C [46]: 24.9%
- viability, T/C [47]: 9.16%
- viability, T/C [48]: 5.91%
- viability, T/C [49]: 90.2%
- viability, T/C [50]: 72.7%
- viability, T/C [51]: 51.5%
- viability, T/C [52]: 26.6%
- viability, T/C [53]: 10.4%
- viability, T/C [54]: 0.51%
- viability, T/C [55]: 86.5%
- viability, T/C [56]: 69.1%
- viability, T/C [57]: 46.5%
- viability, T/C [58]: 37.3%
- viability, T/C [59]: 10.1%
- viability, T/C [60]: 0.3%

SMILES: O=C(C=Cc1cccc(S(=O)(=O)Nc2ccccc2)c1)NO + NC1CC1c1ccc(-c2cccc(O)c2)cc1
- IC50 (second compound 0.1 µM): 65.8 nM
- IC50 (second compound 0.316 µM): 70.7 nM
- IC50 (second compound 1 µM): 69.2 nM
- IC50 (second compound 3.16 µM): 66.5 nM
- IC50 (second compound 10 µM): 63.6 nM
- viability, T/C [31]: 85.4%
- viability, T/C [32]: 75.1%
- viability, T/C [33]: 36.9%
- viability, T/C [34]: 14.6%
- viability, T/C [35]: 1.81%
- viability, T/C [36]: 0.79%
- viability, T/C [37]: 78.8%
- viability, T/C [38]: 69.1%
- viability, T/C [39]: 43.9%
- viability, T/C [40]: 8.31%
- viability, T/C [41]: 0.59%
- viability, T/C [42]: 0.61%
- viability, T/C [43]: 79.5%
- viability, T/C [44]: 72.9%
- viability, T/C [45]: 40.6%
- viability, T/C [46]: 13.6%
- viability, T/C [47]: 0.92%
- viability, T/C [48]: 0.19%
- viability, T/C [49]: 82.8%
- viability, T/C [50]: 74.1%
- viability, T/C [51]: 37.5%
- viability, T/C [52]: 16.5%
- viability, T/C [53]: 0.75%
- viability, T/C [54]: 1.27%
- viability, T/C [55]: 74%
- viability, T/C [56]: 65.2%
- viability, T/C [57]: 41.4%
- viability, T/C [58]: 17.4%
- viability, T/C [59]: 0.56%
- viability, T/C [60]: 1.22%

SMILES: O=C(c1cc(Cc2n[nH]c(=O)c3ccccc23)ccc1F)N1CCN(C(=O)C2CC2)CC1 + NC1CC1c1ccc(-c2cccc(O)c2)cc1
- IC50 (second compound 0.1 µM): > 10000 nM
- IC50 (second compound 0.316 µM): > 10000 nM
- IC50 (second compound 1 µM): > 10000 nM
- IC50 (second compound 3.16 µM): > 10000 nM
- IC50 (second compound 10 µM): 9280 nM
- viability, T/C [5]: 86.1%
- viability, T/C [6]: 86.2%
- viability, T/C (second compound 0.1 µM, first compound 0.316 µM): 93.4%
- viability, T/C (second compound 0.1 µM, first compound 1 µM): 76.6%
- viability, T/C (second compound 0.1 µM, first compound 3.16 µM): 77.2%
- viability, T/C (second compound 0.1 µM, first compound 10 µM): 63.4%
- viability, T/C [11]: 92.3%
- viability, T/C [12]: 83.2%
- viability, T/C (second compound 0.316 µM, first compound 0.316 µM): 74.8%
- viability, T/C (second compound 0.316 µM, first compound 1 µM): 90.7%
- viability, T/C (second compound 0.316 µM, first compound 3.16 µM): 72.2%
- viability, T/C (second compound 0.316 µM, first compound 10 µM): 67.5%
- viability, T/C [17]: 86.8%
- viability, T/C [18]: 83.5%
- viability, T/C (second compound 1 µM, first compound 0.316 µM): 79.3%
- viability, T/C (second compound 1 µM, first compound 1 µM): 69.9%
- viability, T/C (second compound 1 µM, first compound 3.16 µM): 61.5%
- viability, T/C (second compound 1 µM, first compound 10 µM): 58.8%
- viability, T/C [23]: 84.4%
- viability, T/C [24]: 80.2%
- viability, T/C (second compound 3.16 µM, first compound 0.316 µM): 84.9%
- viability, T/C (second compound 3.16 µM, first compound 1 µM): 79.5%
- viability, T/C (second compound 3.16 µM, first compound 3.16 µM): 61%
- viability, T/C (second compound 3.16 µM, first compound 10 µM): 57.4%
- viability, T/C [29]: 79.1%
- viability, T/C [30]: 76%
- viability, T/C (second compound 10 µM, first compound 0.316 µM): 79.2%
- viability, T/C (second compound 10 µM, first compound 1 µM): 70.6%
- viability, T/C (second compound 10 µM, first compound 3.16 µM): 61.6%
- viability, T/C (second compound 10 µM, first compound 10 µM): 49.4%

— PubChem BioAssay AID1918938 (Molecular Pharmacology Branch, DTP, NCI, 2023)
